Experimental data published in patent publication US6706509B2, “Oncoprotein protein kinase” (The Regents of the University of California, priority 1993, dated 2004).

How the values were obtained:
[1] = system: JNK (55 kD and 46 kD forms); assay: In-gel kinase assay of JNK in Jurkat whole cell extracts; type: cell-based, human; conditions: for JNK activation, in-gel kinase assay, agent alone: TPA 50 ng/ml or A23187 1 μg/ml
Experimental: In-gel kinase assay was performed as described by Kameshita and Fujisawa, Anal. Biochem., 183:139, (1989) with slight modifications. Briefly, c-Jun binding proteins were isolated from whole cell extracts by using GSH-agarose beads containing 80 μg GST-cJun as described above. Proteins were eluted in Laemlli sample buffer and resolved on 10% SDS-polyacrylamide gel, which was polymerized in the absence or presence of GST-cJun (40 μg/ml). After electrophoresis, the gel was washed twice, 30 minutes each time with 100 ml of 20% 2-propanol, 50 mM HEPES pH 7.6 to remove SDS. After the gel was washed twice, 30 minutes each time, with 100 ml of buffer A (50 mM HEPES pH 7.6, 5 mM β-mercaptoethanol), it was incubated in 200 ml of 6M urea in buffer A at room temperature for 1 hr, followed by serial incubations in buffer A containing 0.05% Tween 20 and either 3M, 1.5M or 0.75M urea. After the gel was washed several times, 1 hr each time, with 100 ml of buffer A containing 0.05% Tween 20 at 4° C., it was incubated with kinase buffer containing 50 μM ATP and 5 μCi/ml γ-^32P-ATP at 30° C. for 1 hour. After the reaction, the gel was washed with 100 ml of 5% tricholoroacetic acid and 1% sodium pyrophosphate at room temperature several times, followed by drying and autoradiography.
JNK exists in two forms, 46 kD and 55 kD in size, both of which are activated by external stimuli (Hibi, et al., supra, 1993; Deng, et al., supra, 1993). […] Whole cell extracts (WCE) of Jurkat cells incubated with TPA (T, 50 ng/ml), A23187 (A, 1 μg/ml) or CsA (100 ng/ml) for 15 minutes, alone or in combination, were separated by SDS-PAGE (100 μg protein/lane) on gels that were cast in the absence or presence of GST-cJun (1-223). The gels were subjected to renaturation protocol and incubated in kinase buffer containing γ-^32P-ATP. The protein bands corresponding to the 55 kD and 46 kD forms of JNK are indicated.
The regulation of JNK in response to T cell activation with anti-CD3 and anti-CD28 antibodies was examined. Jurkat cells (1×10^7) were incubated for 15 minutes with either normal mouse serum, 1 μg/ml anti-CD3 and/or 2 μg/ml anti-CD28, in the absence or presence of 100 ng/ml CsA, as indicated. WCE were prepared and 100 μg samples were analyzed for JNK activation using the in-gel kinase assay, as described above.

[2] = system: JNK; assay: Solid-state phosphorylation assay of JNK in mouse thymocytes; type: cell-based
Experimental: Jurkat cells were grown in RPMI with 10% fetal calf serum (FCS), 1 mM […], 100 μ/ml penicillin (pen), 100 μg/ml streptomycin (strep) and 250 ng/ml amphotericin (complete medium). HeLa S3, CV-1 and FR3T3 cells were grown in DMEM supplemented with 10% FCS, 100 μ/ml pen, 100 μg/ml strep. All cells were cultured at 37° C. with 5% CO2. Mouse thymocytes were prepared from 8 week old Balb/C mice by gradient centrifugation on lymphocyte separation medium (Pharmacia). The lymphocytes were cultured for 5 hours at 37° C. in RPMI+10% FCS, prior to stimulation. Jurkat cells were labelled for 90 minutes with 0.5 mCi/ml ^32P-orthophosphate (ICN Radiochemicals) in medium lacking sodium phosphate. Labelled cells were treated with TPA (Sigma) and A23187 (Calbiochem) 1 μg/ml as indicated. When used, cyclosporin A (CsA) (Sandoz) 100 ng/ml in ethanol was added 10 minutes prior to cell stimulation. Following stimulation, the labelled cells were washed twice with ice-cold PBS then lysed with RIPA buffer (10 mM Tris pH 7.5, 150 mM NaCl, 2 mM EDTA, 1% Triton-X 100, 1% DOC, 0.1% SDS) supplemented with phosphatase inhibitors (20 mM β-glycerophosphate, 10 mM p-nitro-phenylphosphate, 1 mM Na3 VO4), and protease inhibitors (10 μg/ml leupeptin, aprotonin, pepstatin and 1 mM phenylmethyl sulfonylfluoride). c-Jun was immunoprecipitated as described (Binetruy, et al., supra., 1992) and analyzed by SDS-PAGE, followed by peptide mapping (Boyle, et al., Cell, 64:573-584, 1991; Lin, et al. Cell, 70:777-789, 1992). Ha-Ras was immunoprecipitated with Y13-259. Ha-Ras bound nucleotides were extracted and analyzed as described by Satoh, et al., (Proc. Natl. Acad. Sci., USA, 15:5993-5997, 1990).
We examined whether elevated intracellular Ca^++ affects JNK activation in other cells. […] Cultures of FR3T3, CV-1, PC12 and mouse thymocytes were incubated for 15 minutes in the presence of TPA (50 ng/ml, T), A23817 (1 μg/ml, A) and/or CsA (100 ng/ml), as indicated. […] After washing, JNK activity was determined by solid-state phosphorylation assay as described above.

cyclosporin A [CsA]
JNK activation, in-gel kinase assay, CsA added to TPA+A23187 ([1]; CsA 100 ng/ml, 15 minutes): blocked this costimulatory effect
JNK activity, CsA added to TPA+A23187 ([2]; CsA 100 ng/ml): inhibited

CCCCCCCCCCCCCC(=O)O[C@@H]1[C@@H](C)[C@@]2(O)[C@@H](C=C(CO)C[C@]3(O)C(=O)C(C)=C[C@@H]23)[C@H]2C(C)(C)[C@]12OC(C)=O [TPA]
JNK activation, in-gel kinase assay, agent alone ([1]; Jurkat, 15 minutes): activated
JNK activity, TPA alone ([2]; TPA 50 ng/ml, 15 minutes): moderate increase in JNK activity

anti-CD3: anti-CD3 monoclonal antibody OKT3
JNK activity, in-gel kinase assay, simultaneous incubation with both antibodies ([1]; Jurkat, 1 μg/ml anti-CD3 and 2 μg/ml anti-CD28, 15 minutes): strong synergistic activation of both forms

CNc1ccc2oc(C[C@H]3O[C@@]4(CC[C@H]3C)O[C@H]([C@H](C)C(=O)c3ccc[nH]3)[C@H](C)C[C@H]4C)nc2c1C(=O)O [A23187]
JNK activation, in-gel kinase assay, costimulation with TPA ([1]; A23187 1 μg/ml plus TPA 50 ng/ml, 15 minutes): potentiated its activation by TPA
JNK activation, in-gel kinase assay, agent alone ([1]; Jurkat, 15 minutes): did not activate JNK
JNK activity, costimulation with TPA ([2]; A23187 1 μg/ml plus TPA): enhanced
